We go through one compound from patent US20110288072A1, “Use of ivabradine for obtaining medicaments intended for the treatment of endothelial dysfunction” (LES LABORATOIRES SERVIER, priority 2007, published 2011).

The test system of one assay is dyslipidaemic mice. Briefly: Endothelial function and compliance of isolated renal and cerebral arteries (myograph) in dyslipidaemic mice. It counts as in vivo, mouse. Conditions: 10 mg/kg per day for 3 months. As to the method:
(§1) The impact of treatment with ivabradine on endothelial function was studied in two pathological animal models, dyslipidaemic mice, and rats with heart failure, on 4 different vascular beds, renal and cerebral arteries in the mouse, coronary and mesenteric arteries in the rats. Study of the endothelial function comprises measuring the capacity of the vessel to dilate in response to various stimuli, such as acetylcholine, or measuring the increase in flow in the vessel.
(§2) Some animals were treated with ivabradine, 10 mg/kg per day for 3 months. Dyslipidaemic mice, rats with heart failure, healthy mice (Wild type) and healthy rats, untreated, acted as controls. At the end of the treatment period, the arteries were isolated and mounted in a myograph in order to measure their diameter after the application of acetylcholine or to measure the increase in flow. In order to explore more closely the mechanism associated with endothelial dysfunction, inhibitors of the principal pathways of vasodilation were tested: a free-radical chelating agent, a nitrogen monoxide production inhibitor, a prostacyclin pathway inhibitor.
The compliance (capacity of the vessel to dilate as the transmural pressure increases) of the cerebral arteries of the mice was also evaluated.

Assay [1] has as its system dyslipidaemic mice, and rats with heart failure. Briefly: Cardiac frequency after 3 months' treatment in the animal models. It is filed as in vivo, mouse, rat. The conditions noted are these: 10 mg/kg per day for 3 months.
The next assay deals with rats with heart failure. Briefly: Endothelial function of isolated coronary and mesenteric arteries (myograph) in rats with heart failure. It is filed as in vivo, rat. The conditions noted are these: 10 mg/kg per day for 3 months. As to the method: as §1, §2
The subject of assay [2] is dyslipidaemic mice, and rats with heart failure. Kind of assay: Mechanism of endothelial dysfunction explored with inhibitors of the principal pathways of vasodilation. Conditions: mechanism of the beneficial effects; 10 mg/kg per day for 3 months. It counts as in vivo, mouse, rat. As for the experimental part: as §2

SMILES strings stand for the structures.

In the case of `COc1cc2c(cc1OC)CC(=O)N(CCCN(C)C[C@H]1Cc3cc(OC)c(OC)cc31)CC2` [ivabradine, 3-{3-[{[(7S)-3,4-dimethoxybicyclo [4.2.0]octa-1,3,5-trien-7-yl]-methyl}-(methyl)-amino]-propyl}-7,8-dimethoxy-1,3,4,5-tetrahydro-2H-3-benzazepin-2-one], in the assay on dyslipidaemic mice (DL mouse, FIG. 1C, D), the “endothelial dysfunction (capacity to dilate) in the cerebral artery” value is “completely prevents entothelial dysfunction” and the “endothelial dysfunction (capacity to dilate) in the renal artery” value was “completely prevents entothelial dysfunction”. The “compliance of the isolated cerebral arteries” value in the assay on dyslipidaemic mice (treated mice) is recorded as “improved”. Further, the “reduction in cardiac frequency” value in assay [1] was 10-20%. Further, the “endothelial dysfunction (capacity to dilate) in the coronary artery” value in the assay on rats with heart failure (HF rat, FIG. 1A) is “completely prevents entothelial dysfunction”. Further, the “capacity of the mesenteric artery to dilate” value in the assay on rats with heart failure (treated HF rat compared with untreated HF rat, FIG. 1B) is reported as “appreciably improved”. In assay [2], the nitrogen monoxide pathway entry is “preservation of the nitrogen monoxide pathway” and the oxidative stress result is recorded as “decrease in oxidative stress”.
